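Each compound was tested at five concentrations against cells in 96-well plates for 48 hours. GI50: concentration for 50% inhibition of growth.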 Active and inactive are the calls of the source. Cut-off read from the data, not from the text of the source: active = GI50 up to about 1.1 µM and inactive = higher.
Columns and labels:
Assay in all cases: growth of human tumour cells (NCI), 48 h
LOX IMVI = system: LOX IMVI
NCI/ADR-RES = system: NCI/ADR-RES
SK-MEL-2 = system: SK-MEL-2
HOP-92 = system: HOP-92
OVCAR-4 = system: OVCAR-4
EKVX = system: EKVX
A498 = system: A498
NCI-H522 = system: NCI-H522
HCC 2998 = system: HCC 2998
MDA-N = system: MDA-N
NCI-H23 = system: NCI-H23
SNB-75 = system: SNB-75
UACC-257 = system: UACC-257
CAKI-1 = system: CAKI-1
PC-3 = system: PC-3
MCF7 = system: MCF7
TK-10 = system: TK-10
HCT-116 = system: HCT-116
SN12C = system: SN12C

Row | SMILES | GI50 (LOX IMVI) | GI50 (NCI/ADR-RES) | GI50 (SK-MEL-2) | GI50 (HOP-92) | GI50 (OVCAR-4) | GI50 (EKVX) | GI50 (A498) | GI50 (NCI-H522) | GI50 (HCC 2998) | GI50 (MDA-N) | GI50 (NCI-H23) | GI50 (SNB-75) | GI50 (UACC-257) | GI50 (CAKI-1) | GI50 (PC-3) | GI50 (MCF7) | GI50 (TK-10) | GI50 (HCT-116) | GI50 (SN12C)
1 | O=C1Nc2ccc(Br)cc2C1=Nc1cccnc1 | 15.7 µM (inactive) | 24.8 µM (inactive) | 23.4 µM (inactive) | > 100 µM (inactive) | 7.23 µM (inactive) | 24.3 µM (inactive) | > 100 µM (inactive) | 13.2 µM (inactive) | 20.6 µM (inactive) | 17 µM (inactive) | 20.7 µM (inactive) | > 100 µM (inactive) | 21.4 µM (inactive) | 20.7 µM (inactive) | 18.1 µM (inactive) | 22.7 µM (inactive) | 57.5 µM (inactive) | 20.1 µM (inactive) | 18.4 µM (inactive)
2 | O=C(CCSC(CC(=O)c1ccc(Cl)cc1)c1ccc(Cl)cc1)Nc1ccc(Cl)cc1 (centres undefined) | 5.83 µM (inactive) | 15.5 µM (inactive) | 15.5 µM (inactive) | 17.6 µM (inactive) | 14.7 µM (inactive) | 12.7 µM (inactive) | 12.4 µM (inactive) | 14.5 µM (inactive) | 14 µM (inactive) | 9.68 µM (inactive) | 16.3 µM (inactive) | 21.8 µM (inactive) | 15.7 µM (inactive) | 18.4 µM (inactive) | 14.1 µM (inactive) | 3.72 µM (inactive) | 14.6 µM (inactive) | 5.86 µM (inactive) | 12.4 µM (inactive)
3 | COc1cc(OCc2ccc3nc(-c4ccccc4)c(N)nc3c2)cc(OC)c1OC | 13.7 µM (inactive) | 20.7 µM (inactive) | 19.9 µM (inactive) | 11.4 µM (inactive) | 13.8 µM (inactive) | 19.7 µM (inactive) | 27.1 µM (inactive) | 13.6 µM (inactive) | 35 µM (inactive) | 15.5 µM (inactive) |  | 19.2 µM (inactive) | 25 µM (inactive) | 23.4 µM (inactive) | 17.8 µM (inactive) | 22 µM (inactive) | 24.1 µM (inactive) | 3.61 µM (inactive) | 25.7 µM (inactive)
4 | Oc1ccc(-c2cc(-c3cc(-c4ccc(O)cc4)no3)on2)cc1 | 11.5 µM (inactive) | > 100 µM (inactive) | > 48 µM (inactive) | > 100 µM (inactive) | > 100 µM (inactive) | 26.5 µM (inactive) | > 100 µM (inactive) | 19.7 µM (inactive) | > 63.4 µM (inactive) | 36.9 µM (inactive) | > 100 µM (inactive) | > 52.8 µM (inactive) | 7.64 µM (inactive) | 56.6 µM (inactive) | 13.2 µM (inactive) | 34.2 µM (inactive) | > 100 µM (inactive) | 45.3 µM (inactive) | 
5 | COc1cccc(CC(=O)N2CCN(CCCc3ccccc3)CC2)c1 | > 100 µM (inactive) | 27.9 µM (inactive) | > 100 µM (inactive) | 25.2 µM (inactive) | 34.4 µM (inactive) | 59.6 µM (inactive) | > 100 µM (inactive) | 57.9 µM (inactive) | 98.4 µM (inactive) | 90.8 µM (inactive) | 36.1 µM (inactive) |  | 37.3 µM (inactive) | 80.4 µM (inactive) | > 100 µM (inactive) | 60.3 µM (inactive) | 78.7 µM (inactive) | 65.6 µM (inactive) | > 100 µM (inactive)
6 | O=C(O)/C(O)=C\C(=O)c1ccc(Br)cc1 | > 100 µM (inactive) | > 100 µM (inactive) | > 100 µM (inactive) | > 100 µM (inactive) | > 100 µM (inactive) | 2.98 µM (inactive) | > 100 µM (inactive) | > 100 µM (inactive) | > 100 µM (inactive) | > 100 µM (inactive) | > 100 µM (inactive) | > 100 µM (inactive) | > 100 µM (inactive) | > 100 µM (inactive) | > 100 µM (inactive) | > 100 µM (inactive) | > 100 µM (inactive) | > 100 µM (inactive) | > 100 µM (inactive)
7 | Cc1ccc(S(=O)(=O)N2CCN(CCO)CCN(S(=O)(=O)c3ccc(C)cc3)CCN(CCO)CC2)cc1 | 13.6 µM (inactive) | 18.5 µM (inactive) | 16.5 µM (inactive) | 21.5 µM (inactive) | 15 µM (inactive) | 18.2 µM (inactive) | 24.7 µM (inactive) | 18.7 µM (inactive) | 15.4 µM (inactive) | 27.2 µM (inactive) | 18.2 µM (inactive) | 26.3 µM (inactive) | 10.3 µM (inactive) | 37.8 µM (inactive) | 33 µM (inactive) | 13.4 µM (inactive) | 28.2 µM (inactive) | 15 µM (inactive) | 45 µM (inactive)
8 | Nc1nc(Cl)cc(NCC2(CO)CCC(CCc3ccccc3)C2)n1 (centres undefined) | 7.89 µM (inactive) | 11.9 µM (inactive) | 18.5 µM (inactive) | 15.5 µM (inactive) | 11.9 µM (inactive) | 0.771 µM (active) | 12.8 µM (inactive) | 11.4 µM (inactive) | 17.5 µM (inactive) | 14.2 µM (inactive) | 2.88 µM (inactive) | 20.8 µM (inactive) | 6.22 µM (inactive) | 13.5 µM (inactive) | 19.3 µM (inactive) | 11.7 µM (inactive) | 18 µM (inactive) | 2.29 µM (inactive) | 16 µM (inactive)
